Entries after “also recorded” stand apart in the source; their conditions may differ.
What was measured:
[1] = biological target: T1, hSV2C (Homo sapiens, UniProt Q496J9); assay: IC50 of unlabelled ligands against SV2C, [^3H]-compound 7 as probe; type: binding; conditions: [^3H]-compound 7 as labeled probe, FIG. 6
T1 construct: expressed in transfected cells; host or cells: COS-7 (transient transfection)
T1 sequence (Q496J9 1-727): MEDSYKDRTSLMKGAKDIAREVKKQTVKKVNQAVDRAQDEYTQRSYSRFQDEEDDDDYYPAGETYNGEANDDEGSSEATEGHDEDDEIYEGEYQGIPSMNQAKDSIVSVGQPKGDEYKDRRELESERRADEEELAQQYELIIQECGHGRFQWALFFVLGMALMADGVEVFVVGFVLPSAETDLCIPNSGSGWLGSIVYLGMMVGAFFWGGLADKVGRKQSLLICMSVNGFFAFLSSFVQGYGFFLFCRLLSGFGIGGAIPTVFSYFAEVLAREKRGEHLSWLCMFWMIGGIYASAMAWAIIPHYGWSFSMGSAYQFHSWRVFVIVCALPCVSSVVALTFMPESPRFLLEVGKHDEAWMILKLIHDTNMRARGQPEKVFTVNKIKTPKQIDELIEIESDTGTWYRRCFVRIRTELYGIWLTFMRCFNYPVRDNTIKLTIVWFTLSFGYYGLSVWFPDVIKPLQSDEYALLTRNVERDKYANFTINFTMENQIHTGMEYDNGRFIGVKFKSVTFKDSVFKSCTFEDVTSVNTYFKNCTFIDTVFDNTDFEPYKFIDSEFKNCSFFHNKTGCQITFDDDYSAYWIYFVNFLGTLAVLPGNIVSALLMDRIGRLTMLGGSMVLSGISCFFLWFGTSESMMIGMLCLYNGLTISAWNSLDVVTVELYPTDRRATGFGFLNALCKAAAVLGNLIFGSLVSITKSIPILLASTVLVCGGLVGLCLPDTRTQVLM
Text: (M). Depicted are the IC50 curves of compound 7 binding to hSV2A (x) and hSV2C (□), and compound Z binding to hSV2A (▪) and hSV2C (⋄).
(§1) This confirms that labeled-compound Z has poor affinity for utilizing as a probe against SV2C, and that labeled-compound 7 is a preferred probe to utilize in screening against SV2C.

[2] = biological target: human SV2A (Homo sapiens, UniProt Q7L0J3); assay: Radioligand binding to SV2A under standard conditions
human SV2A, sequence (Q7L0J3 whole entry): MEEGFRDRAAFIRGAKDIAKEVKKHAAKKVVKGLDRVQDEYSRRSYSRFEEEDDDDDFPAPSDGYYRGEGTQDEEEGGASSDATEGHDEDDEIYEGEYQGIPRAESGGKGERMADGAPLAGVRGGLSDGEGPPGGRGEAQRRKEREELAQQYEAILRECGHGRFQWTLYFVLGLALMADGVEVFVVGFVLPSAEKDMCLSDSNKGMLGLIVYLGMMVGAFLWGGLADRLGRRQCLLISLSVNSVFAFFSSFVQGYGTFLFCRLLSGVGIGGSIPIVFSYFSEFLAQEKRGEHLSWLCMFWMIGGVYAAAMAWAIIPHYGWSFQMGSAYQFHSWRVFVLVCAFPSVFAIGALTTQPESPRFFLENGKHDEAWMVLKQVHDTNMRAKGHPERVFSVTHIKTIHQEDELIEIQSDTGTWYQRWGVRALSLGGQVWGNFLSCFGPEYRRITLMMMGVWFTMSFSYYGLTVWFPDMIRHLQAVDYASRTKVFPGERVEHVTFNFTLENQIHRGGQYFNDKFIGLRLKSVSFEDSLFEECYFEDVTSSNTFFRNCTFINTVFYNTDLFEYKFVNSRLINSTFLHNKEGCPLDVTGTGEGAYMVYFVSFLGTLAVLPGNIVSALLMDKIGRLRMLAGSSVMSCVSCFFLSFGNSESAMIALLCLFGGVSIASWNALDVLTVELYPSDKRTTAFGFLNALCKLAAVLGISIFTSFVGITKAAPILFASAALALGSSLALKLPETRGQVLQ
Text: as §1

[3] = biological target: T1, hSV2C; assay: Radioligand binding to COS-7 cells transfected with SV2C; conditions: displaced by excess levetiracetam, FIG. 5
Text: as §1

[4] = biological target: T2, LBS (Rattus norvegicus, UniProt Q02563); assay: Competition binding curves against [^3H]-compound 7, rat brain membranes
T2 construct: from tissue; host or cells: rat brain (crude membranes)
T2 sequence (Q02563 whole entry): as the sequence (Q7L0J3 whole entry) above, with D53E, S62A, T71A, E144D, A154T, G440S, S482A, I572V, M634L counted along it
Description: FIGS. 2a and 2b depict competition binding curves showing that compound 7 binds to LBS with about 30 fold higher affinity than levetiracetam. […] (M). Test drugs are levetiracetam (2a) and compound 7 (2b).
Binding experiments were conducted on crude rat brain membranes at 4° C. as described in Noyer M. et al. (Euro. J. Pharmacol. (1995), 286, 137-146). Incubation time for equilibrium studies was 120 min. […] The Bmax being similar to the value estimated using [^3H]-L059 as radioligand in similar membrane preparations (5 pmol/mg protein).

[5] = tested on: untransfected cells; assay: Radioligand binding to untransfected COS-7 cells; conditions: FIG. 5, bars 2
[6] = biological target: T3, LBS/SV2A (Rattus norvegicus, UniProt Q02563); assay: Photolabelling of LBS in rat brain membranes, SDS-PAGE; type: binding; conditions: UV irradiated rat brain membranes, gel slicing
T3 construct: from tissue; host or cells: rat brain (crude membranes)
T3 sequence (Q02563 whole entry): as the sequence (Q7L0J3 whole entry) above, with D53E, S62A, T71A, E144D, A154T, G440S, S482A, I572V, M634L counted along it
Text: Y-axis represents the radioactivity (DPM) in gel slices and X-axis represents the gel slice number. Each number and arrow in the graph represents the position and the size in kilodaltons of molecular weight standards.
This example provides a photoactivable ligand for labelling SV2A/LBS and its detection in biological samples. This ligand was designed to cross-link to the LBS/SV2A with an azidophenyl motif capable of forming a covalent complex with the protein upon UV light irradiation.

CC[C@@H](C(N)=O)N1CC(c2cccc(N=[N+]=[N-])c2)CC1=O (stereo partly drawn) [compound Z, (2S)-2-[4-(3-azidophenyl)-2-oxopyrrolidin-1-yl]butanamide]
affinity to SV2C compared with SV2A (IC50 curves) [1]: different affinities; also recorded: much weaker affinity

CC[C@@H](C(N)=O)N1CC(c2cccc(N=[N+]=[N-])c2)CC1=O (stereo partly drawn) [[^3H]-compound Z, reference compound]
binding of radioligand to SV2A [2]: binds well | binding of radioligand to SV2C expressed in COS-7 cells [3]: absence of specific binding; also recorded: lack of binding

[N-]=[N+]=Nc1c(F)ccc(C2CC(=O)N(Cn3ccnc3)C2)c1F (single isomer, unassigned; (+)) [compound 7, (+)-4-(3-azido-2,4-difluorophenyl)-1-(1H-imidazol-1-ylmethyl)pyrrolidin-2-one]
fold higher affinity for LBS than levetiracetam (L059) ([4]; FIG. 2): about 30 fold | Ki ([4]; rat brain membranes): 31.6 nM | affinity to SV2C compared with SV2A (IC50 curves) [1]: equivalent affinities

[^3H]-(+)-4-(3-azido-2,4-difluorophenyl)-1-(1H-imidazol-1-ylmethyl)pyrrolidin-2-one [[^3H]-compound 7]
specific binding of radioligand in untransfected cells [5]: no specific binding | size of the protein the radiolabel incorporates into [6]: 90 kDa | binding of radioligand to SV2C expressed in COS-7 cells [3]: specific binding; also recorded: binds well
